This note sets out measurements from article PMC11039730, “In situ captured antibacterial action of membrane-incising peptide lamellae” (Nature Communications, 2024).

For orientation: IC20 means the concentration needed for an effect of 20%. As a reminder, the IC80 is the concentration needed for an effect of 80%. By IC50 is commonly meant the midpoint of a concentration-inhibition curve. In general, solubility (thermodynamic) refers to solubility found after equilibrating the solid with the medium.

In brackets after ≈: the same amount, converted by molar mass. Where two headings read alike, the source gives them in different places.

Series [1] relates to BL21 DE3 Escherichia coli strain. It is filed as cell-based. Here is the method: To investigate the antimicrobial effect of lamellin-2K and lamellin-3K, we used the BL21 DE3 Escherichia coli strain with chromosomal resistance to chloramphenicol. The inoculum was grown overnight in the presence of 30 μM chloramphenicol. 0.5 mL of this inoculum was diluted into 50 mL fresh LB medium and grown till the optical density at 600 nm reached 0.5−0.6 indicating an exponential growth phase. Cells were then centrifuged at 3220 g at 4 °C for 20 min, washed twice in the assay medium (MQ water, 10 mM PBS, or 0.15 mM NaCl), then resuspended in 5 mL of the same medium. 10 μL cell suspension was diluted with the peptide solution to a final concentration of 250 μM, 125 μM, 60 μM, 30 μM, 10 μM, 5 μM, 1 μM and 0 μM (control) in 100 μl volume and incubated for 2 h in sterile, low-bind, U-bottom 96-well microplates (Greiner Bio-One, Hungary) with oxygen penetrating lid at 37 °C, at continuous shaking in a BioTek Synergy Mx plate reader. Aliquots from the wells were taken for the quantification of bacterial viability on LB agar plates after incubation at 37 °C for 16 h to obtain CFU/mL data. Treatments were performed in three biological replicates, each of which in three technical replicates.
Supplementary Figure 26: Antibacterial activity of 2K and 3K in the presence and absence of phosphate ions. a) Growth inhibition curves. Exponentially growing E. coli BL21 shaker cultures were exposed to the peptides at 37 °C in various media for 120 min. Treatments were performed in three biological replicates, each of which in three technical replicates. Data represent mean and error bars represent SEM. Data points are connected to guide the eye. b) Viability curves calculated from growth inhibition data in (a). Smooth lines are sigmoid fits to […]
Supplementary Table 6: Antimicrobial activity of 2K and 3K in various media. […]
* IC values are calculated from sigmoid fits to the viability vs. log(c) data points.
All errors are standard errors. […]

A short description of series [2]: ANS binding fluorescence (assembly formation). Conditions: 125 μM peptide, 2.5 μM ANS, mean of 3. The series is classed as physicochemical. Here is the method: Fluorescence spectra were recorded using a JASCO FP-8500 spectrofluorometer with an excitation and emission bandwidth of 10 nm and 20 nm, respectively. Three accumulations were measured each time. The 8-anilino-1-naphthalenesulfonic acid (ANS) fluorophore was excited at 388 nm and the emission was recorded from 410 to 600 nm. Binding assays were performed using 125 μM peptide (50 μL) and 2.5 μM ANS. Spectra were corrected for those of the corresponding peptide solutions. page 11: Supplementary Figure 8: ANS binding capacity is higher for 3K and in phosphate media. ANS binding of 2K and 3K (125 μM) were tested in the indicated media using the ANS probe at 2.5 μM. The emission intensities at the maxima were read, and values were normalized for that of unbound ANS. Gray line highlights the reference signal of free ANS. In all tested media, higher ANS binding was detected for 3K over 2K. […] Error bars represent the standard deviation of the mean for three independent experiment sets. 11 (1 picture or pasted object on this page, not shown here)

In series [3] the test system is MonoMac 6 human monocytic cells. It is filed as cell-based. The note with it: 2 h, AlamarBlue, mean ± SEM, n = 4. Here is the method:
To evaluate the cytotoxicity of the compounds, AlamarBlue viability assay was performed on MonoMac 6 human monocytic cells (DSMZ no.: ACC 124, Braunschweig, Germany). […] Cells were maintained as an adherent culture in RPMI-1640 media (Lonza, Basel), supplemented with 10% FCS, L-glutamine (2 mM) and penicillin/streptomycin (50 IU/mL and 50 μg/mL) at 37 °C in a humidified atmosphere containing 5% CO2. On the day of the experiment, cells were washed twice with serum-free RPMI or with TRIS-HCl buffer (0.1 M, pH = 7.4) and plated in 96-well flat-bottom tissue culture plates (Sarstedt) (20,000 cells). 250 μM of the lamellin-3K was dissolved and serially diluted (125 μM, 62.5 μM, 31.25 μM, 15.63 μM, 7.81 μM, 3.91 μM, 1.95 μM) in the corresponding assay medium and added to the cells. The final concentration range was between 1.95 and 250 μM and the final volume was 100 μL. […] Following a 2 h of incubation, the fluorescence was measured at λEx = 530/30 and λEm = 610/10 nm using a Synergy H4 multi-mode microplate reader (BioTek). The percent of viability was calculated compared to untreated control wells. […] IC50 values were calculated from the dose-response curves, after fitting with sigmoidal funcion using the GraphPad Prism software package. […]
parallel experiments and error bars represent SEM. The viability percentage was calculated relative to the untreated […]
On the technique in general: The colour change of resazurin is a common sign of viable cells or microbes.

A short description of another series: physchem. The series is classed as physicochemical. Conditions: aqueous buffer. Here is the method: For assignment purposes, appropriate amounts of lyophilized solid lamellin-2K (or lamellin-3K, respectively) were dissolved in H2O to prepare ~1 mM solutions, followed by 15 min sonication and addition of 10% D2O. For monitoring the effects of different solvents, the lyophilized lamellin-2K and lamellin-3K were dissolved in PBS, sonicated for 30 min, further on 10% D2O was added. For 2K, the concentration of the lamellin was ~250 μM and the solution contained PBS. […] After each addition, the solution was sonicated for 30 min. All samples were measured at 298 K. […]
Supplementary Figure 7: a) and b) Overlay of 1D 1H spectra in water (c = 1 mM, dark colour) and in PBS (light colour) for 2K (green) and 3K (blue), respectively. Concentration in PBS was ~ 250 µM for 2K and ~ 20 µM for 3K. c) and d) Regions of overlaid 1H-1H TOCSY (green) and 1H-1H ROESY (red) for 2K, indicating sequential connectivities. e) Variation of the 3K concentration during PBS titration determined from the integration of leucine […]

Where [4] appears, read: 10 mM PBS, 2 h at 37 °C, CFU on LB agar, sigmoid fit, ± standard error, 3 biological replicates.
The mark [5] stands for this setting: NaCl (0.15 mM [sic] NaCl), 2 h at 37 °C, CFU on LB agar, sigmoid fit, ± standard error, 3 biological replicates.

For the molecule `CCCC(=O)N[C@H](CC(=O)N[C@@H](CC(=O)N[C@@H](CCCCN)CC(=O)N[C@@H](CC(=O)N[C@@H](CCCCN)CC(=O)N[C@@H](CC(N)=O)CC(C)C)CC(C)C)CC(C)C)CC(C)C` [2K], the IC20 in series [1] (setting [4]) was 46.1 ± 4.07 µM; in series [1] (MQ water, 2 h at 37 °C, CFU on LB agar, sigmoid fit, ± standard error, 3 biological replicates), 7.06 ± 0.343 µM; in series [1] (setting [5]), 54 ± 12.2 µM. The IC80 in series [1] (setting [4]) is 77.7 ± 3.93 µM; in series [1] (MQ water, 2 h at 37 °C, CFU on LB agar, sigmoid fit to viability vs log(c), ± standard error, 3 biological replicates), 11.2 ± 0.373 µM; in series [1] (setting [5]), 74.2 ± 10.8 µM. For the same molecule, the “ANS fluorescence, Mean” value is listed as 1.52 arb. units in series [2] (H2O), 1.24 arb. units in series [2] (NaCl), 5.15 arb. units in series [2] (PBS) and 11.66 arb. units in series [2] (phosphate).
As for `CCCC(=O)N[C@H](CC(=O)N[C@@H](CC(=O)N[C@@H](CCCCN)CC(=O)N[C@@H](CC(=O)N[C@@H](CCCCN)CC(=O)N[C@@H](CC(=O)N[C@@H](CCCCN)CC(=O)N[C@@H](CC(N)=O)CC(C)C)CC(C)C)CC(C)C)CC(C)C)CC(C)C` [3K], the IC20 in series [1] (setting [4]) came out at 9.27 ± 1.45 µM; in series [1] (setting [5]), 4.22 ± 0.82 µM. The values for the IC80 in series [1] (setting [4]) and in series [1] (setting [5]) were 14.6 ± 1.46 µM and 7 ± 1.02 µM, respectively. For the same molecule, the IC50 in series [1] (10 mM PBS, 2 h at 37 °C, CFU on LB agar, sigmoid fit, ± standard error, 3 biological replicates, read-out: IC50) stood at 11.6 ± 1.5 µM; in series [1] (BL21, 2 h), 5.44 ± 0.91 µM; in series [1] (MQ water (phosphate-free), 2 h at 37 °C, CFU on LB agar, sigmoid fit, ± standard error, 3 biological replicates, read-out: IC50) it was 1.24 µM; in series [3] (RPMI (phosphate-containing, 5.6 mM Na2HPO4)) it was 126 ± 7.1 µM; in series [3] (Tris-HCl (phosphate-free, 0.1 M, pH 7.4)), 112 ± 8.4 µM. The molecule also returned a thermodynamic solubility at 30 min in “physchem” of around 20 µM (≈ 23 µg/mL). Moreover, the “ANS fluorescence, Mean” value in series [2] (H2O) worked out at 3.21 arb. units; in series [2] (NaCl), 7.78 arb. units; in series [2] (PBS), 14.27 arb. units; in series [2] (phosphate), 19.27 arb. units.
